The text below walks through data of patent US4448788A, “11-Deoxoglycyrrhetinic acid hydrogen maleate, process for its production, and its use as a medicine” (priority 1981, dated 1984).

A word on the LD50: it is the dose expected to kill half of the subjects tested.

Counter-ions that a name gives are not always drawn. Like-named read-outs stand apart in the source and are kept apart here. Bounds are passed on as bounds.

The subject of data set [1] is aldosterone (DCA)-like activity. The following applies: cited from earlier work.
Data set [2] deals with Acetic acid-induced ulcer. The experiment in a line: Acetic acid-induced ulcer. The format is in vivo, male SD-strain rats. The following applies: for Percent inhibition / Ulcer index (mean ± standard deviation): once a day for 10 days; for significance of inhibition: rat, in vivo. As for the experimental part:
In the following test examples, male SD-strain rats (body weight 200 to 250 g) were used as experimental animals, and a sodium salt of the compound of formula (I) dissolved in distilled water was used as the compound of this invention. Acetic acid-induced ulcer: Rats, 5 or 10 per group, were used. After they were anesthetized with pentobarbital sodium, the abdomen was incised, and 0.05 ml of 10% acetic acid was injected into the mucous membrane from the serous layer at the boundary portion in the anterior wall between the body of the stomach and the pylorus part. The abdomen was then sutured. Each of the test drugs shown in Table 2 was intraperitoneally or orally administered once a day for 10 consecutive days beginning with the second day after the above operation. On the 15th day after the operation, the stomach was excised and 12 ml of 1% formalin was injected into it. Then, the stomach was dipped in 1% formalin for 10 minutes, and cut open along the greater curvature. The area of an ulcer generated was measured, and the ulcer index was calculated on the basis of the following standard. |0 0 |1-8 1 | 9-24 2 |25-63 3 | 64-120 4 |121-168 5 |>168 6 The tissue respiration activator used was a calf's blood extract preparation administered at a rate of 0.5 ml per 100 g of body weight (this applies to all tissue respiration activators appearing hereinafter).

The test system of data set [3] is Indomethacin-induced ulcer. The experiment in a line: Indomethacin-induced ulcer. The format is in vivo, male SD-strain rats. As to the method: (§1) In the following test examples, male SD-strain rats (body weight 200 to 250 g) were used as experimental animals, and a sodium salt of the compound of formula (I) dissolved in distilled water was used as the compound of this invention.
(§2) The tissue respiration activator used was a calf's blood extract preparation administered at a rate of 0.5 ml per 100 g of body weight (this applies to all tissue respiration activators appearing hereinafter).
Indomethacin-induced ulcer:
Rats, 5 per group, were used. They were caused to fast for 24 hours while giving them only water. Then, indomethacin was subcutaneously injected to the rats in a dose of 30 mg/kg. Eight hours later, the rats were killed, and the stomach was excised and treated in the same way as in Test Example 3. The length of the erosion generated was measured. Each of the test drugs shown in Table 4 was administered to the rats intraperitoneally or orally 10 minutes before the administration of iodomethacin.

The subject of data set [4] is Stress ulcer. The experiment in a line: Stress ulcer (water immersion). In kind it is in vivo, male SD-strain rats. As for the experimental part: as §1, §2
Rats, 5 per group, were used. They were put in wire gauze stress cages (made by Natsume Seisakusho) in an upstanding position. The cages were put in a water bath kept constantly at 23° C., and the rats were immersed to a level of the sternal projection. Each of the drugs shown in Table 3 was administered to the rats intraperitoneally or orally 15 minutes before water immersion. Seven hours after the administration, the rats were knocked out to death. The stomach was excised, and the length of a stress ulcer (erosion) was measured.

Data set [5] in a line: Toxicity (LD50, method of Reed and Muench). The following applies: rat, in vivo, rats observed for 7 days. As for the experimental part:
The LD50 value was calculated by the method of Reed and Muench.

The test system of data set [6] is Delayed-type cellular immunity. The experiment in a line: Delayed-type cellular immunity activating action (sheep red blood cells, foot pad thickness). In kind it is in vivo, mice. Particulars: day 8. As to the method: Mice, 10 per group, were used. Sheep red blood cells (1.0×10^7) were subcutaneously inoculated in the right foot pad of each mouse. The day of inoculation was taken as day 0, and on the same day, the sodium salt of the compound of formula (I) was administered to the mice intraperitoneally or orally. On day 7, sheep red blood cells (1.0×10^7) were subcutaneously inoculated in the left foot pad of each mouse, and on day 8, the thickness of each foot pad was measured.

Data set [7] has as its system Shay's ulcer (ulcer induced by ligation of the pylorus). The experiment in a line: Pylorus ligating method (Shay's ulcer). The format is in vivo, male SD-strain rats. Set-up: Ulcer index (mean ± standard deviation): scale not given here. The following applies: for minimal effective dose: Rattus norvegicus, read-out: positively effective dose. As to the method: as §1
Pylorus ligating method (Shay's ulcer):
Rats, 10 per group, were used, and allowed to fast for 48 hours in separate cages while giving them only water. Pentobarbital sodium was injected intraperitoneally to the rats in a dose of 5 mg per rat. Under anesthesia, the abdomen of each rat was incised, and the portion leading from the pylorus to the duodenum was ligated. Then, the abdomen was sutered. The rats were then left for 19 hours without giving them food and water. Then, under ether anesthesia, the rats were killed by removing the spinal cord. The stomach was excised, and the amount of the gastric juice was measured. The stomach was then cut open along its greater curvature, and placed on a cork plate. The area of an ulcer generated at the anterior stomach was measured by means of an Olympus stereoscope (magnification 10×), and the ulcer index was calculated on the basis of the following criteria.
The test compound of the invention was injected immediately after the ligation, or orally administered 30 minutes before the ligation. To a control group, physiological saline was given at a rate of 1 ml per 100 g of body weight.

[8] abbreviates: oral, 300 mg/kg, P < 0.05 (cetraxate), P < 0.001 (compound of the invention).
[9] abbreviates: oral, 50 mg/kg, P < 0.05 (cetraxate), P < 0.0001 (compound of the invention).
[10] abbreviates: oral, 300 mg/kg, P < 0.01 (cetraxate), P < 0.001 (compound of the invention).

In the case of `CC1(C)[C@@H](O)CC[C@]2(C)[C@H]3CC=C4[C@@H]5C[C@@](C)(C(=O)O)CC[C@]5(C)CC[C@@]4(C)[C@]3(C)CC[C@@H]12` [11-deoxoglycyrrhetinic acid], in data set [1] (Baran et al., J. Med. Chem. 1974), the DCA activity entry was “does not substantially show the DCA activity”.

For the compound `CC1(C)[C@@H](OC(=O)CCC(=O)O)CC[C@]2(C)[C@H]3C(=O)C=C4[C@@H]5C[C@@](C)(C(=O)O)CC[C@]5(C)CC[C@@]4(C)[C@]3(C)CC[C@@H]12` [Carbenoxolone sodium, glycyrrhetinic acid hydrogen succinate sodium salt, reference compound], in data set [2] (oral, 300 mg/kg), the Percent inhibition came out at 12.6%.

Turning to `NC[C@H]1CC[C@H](C(=O)Oc2ccc(CCC(=O)O)cc2)CC1` [Cetraxate hydrochloride, cetraxate hydrochloride, reference compound], the “Length of the erosion (mean ± standard deviation)” value in data set [3] (intraperitoneal, 200 mg/kg) came to 38.94 ± 8.22 mm; in data set [3] (oral, 300 mg/kg) it was 31.58 ± 7.59 mm; in data set [4] (intraperitoneal, 200 mg/kg) it was 56.08 ± 12.89 mm; in data set [4] (setting [10]), 48.6 ± 3.90 mm. Moreover, the Percent inhibition was found to be 44.3% in data set [3] (intraperitoneal, 200 mg/kg); 43.7% in data set [3] (setting [8]); 49.5% in data set [2] (intraperitoneal, 20 mg/kg); 29.6% in data set [2] (setting [9]); 13.5% in data set [4] (intraperitoneal, 200 mg/kg); 36.6% in data set [4] (oral, 300 mg/kg). Besides, the “Ulcer index (mean ± standard deviation)” value was found to be 1.60 ± 0.245 in data set [2] (intraperitoneal, 20 mg/kg) and 1.90 ± 0.568 in data set [2] (oral, 50 mg/kg). The significance of inhibition result in data set [2] is given as “significant inhibitions at P<0.001”.

Take `CC1(C)[C@@H](OC(=O)/C=C\C(=O)O)CC[C@]2(C)[C@H]3CC=C4[C@@H]5C[C@@](C)(C(=O)O)CC[C@]5(C)CC[C@@]4(C)[C@]3(C)CC[C@@H]12` [Compound of the invention, sodium salt of 11-deoxoglycyrrhetinic acid hydrogen maleate]: the “Length of the erosion (mean ± standard deviation)” value worked out at 17.69 ± 8.08 mm in data set [3] (intraperitoneal, 20 mg/kg); 9.37 ± 3.22 mm in data set [3] (oral, 100 mg/kg); 7.22 ± 3.06 mm in data set [3] (oral, 300 mg/kg); 5.63 ± 3.92 mm in data set [3] (oral, 500 mg/kg); 19.25 ± 0.95 mm in data set [4] (intraperitoneal, 20 mg/kg); 9.6 ± 4.80 mm in data set [4] (oral, 100 mg/kg, P < 0.001). In addition, the “Length of the erosion (mean ± standard deviation)” value in data set [4] (setting [10]) came to 0.0 ± 0.00 mm; in data set [4] (oral, 500 mg/kg, P < 0.001), 0.0 ± 0.00 mm. For the same compound, the Percent inhibition was 74.7% in data set [3] (intraperitoneal, 20 mg/kg); 83.3% in data set [3] (oral, 100 mg/kg, P < 0.001); 87.1% in data set [3] (setting [8]); 90.0% in data set [3] (oral, 500 mg/kg, P < 0.001); 54.8% in data set [2] (intraperitoneal, 2 mg/kg); 40.7% in data set [2] (oral, 10 mg/kg, P < 0.001). For the same compound, the Percent inhibition in data set [2] (oral, 30 mg/kg, P < 0.001) was found to be 48.1%; in data set [2] (setting [9]) it was 63.0%; in data set [7] (intraperitoneal, 5 mg/kg), 17.1%; in data set [7] (intraperitoneal, 10 mg/kg), 65.9%; in data set [7] (intraperitoneal, 20 mg/kg), 70.7%; in data set [7] (intraperitoneal, 50 mg/kg), 92.7%. Besides, the Percent inhibition in data set [7] (intravenous, 40 mg/kg) was 90.4%; in data set [7] (oral, 100 mg/kg), 36.0%; in data set [7] (oral, 300 mg/kg) it was 80.0%; in data set [7] (oral, 500 mg/kg), 84.0%; in data set [7] (subcutaneous, 70 mg/kg), 84.6%; in data set [4] (intraperitoneal, 20 mg/kg), 70.3%. For the same compound, the Percent inhibition in data set [4] (oral, 100 mg/kg) is 87.5%; in data set [4] (oral, 300 mg/kg), 100.0%; in data set [4] (oral, 500 mg/kg) it was 100.0%. Moreover, the LD50 at 168 h in data set [5] (ip, intraperitoneal) was 67.8 mg/kg; in data set [5] (sc, subcutaneous) it was 98.3 mg/kg; in data set [5] (intravenous) it was 54.2 mg/kg; in data set [5] (oral) it was > 6000 mg/kg. Besides, the “Ulcer index (mean ± standard deviation)” value amounted to 1.40 ± 0.247 in data set [2] (intraperitoneal, 2 mg/kg, P < 0.001); 1.60 ± 0.699 in data set [2] (oral, 10 mg/kg); 1.40 ± 0.699 in data set [2] (oral, 30 mg/kg); 1.00 ± 0.817 in data set [2] (oral, 50 mg/kg); 3.4 ± 0.84 in data set [7] (intraperitoneal, 5 mg/kg); 1.4 ± 0.51 in data set [7] (intraperitoneal, 10 mg/kg, P < 0.01). In addition, the “Ulcer index (mean ± standard deviation)” value is reported as 1.2 ± 0.20 in data set [7] (intraperitoneal, 20 mg/kg, P < 0.01); 0.3 ± 0.21 in data set [7] (intraperitoneal, 50 mg/kg, P < 0.001); 0.4 ± 0.19 in data set [7] (intravenous, 40 mg/kg, P < 0.001); 3.2 ± 0.97 in data set [7] (oral, 100 mg/kg); 1.0 ± 1.01 in data set [7] (oral, 300 mg/kg, P < 0.01); 0.8 ± 0.49 in data set [7] (oral, 500 mg/kg, P < 0.001). The “Ulcer index (mean ± standard deviation)” value in data set [7] (subcutaneous, 70 mg/kg, P < 0.001) came to 0.8 ± 0.90. Moreover, the significance of inhibition entry in data set [2] was “significant inhibitions at P<0.001”. In addition, the “rank of percent inhibition” value in data set [2] (versus cetraxate hydrochloride and tissue respiration activator) is recorded as “highest”. Besides, the “Ratio to the control group” value in data set [6] (5 mm/kg (so in the source), intraperitoneal) was found to be 1.18; in data set [6] (15 mm/kg (so in the source), intraperitoneal) it was 1.49; in data set [6] (100 mm/kg (so in the source), oral), 1.40. For the same compound, the minimal effective dose is ~10 mg/kg in data set [7] (ip, intraperitoneal) and ~300 mg/kg in data set [7] (oral). In data set [7] (rat, in vivo), the “effect against ulcer induced by ligation of the pylorus” value is recorded as “effective against ulcer induced by ligation of the pylorus”.

With `CC1(C)[C@@H](O)CC[C@]2(C)[C@H]3C(=O)C=C4[C@@H]5C[C@@](C)(C(=O)O)CC[C@]5(C)CC[C@@]4(C)[C@]3(C)CC[C@@H]12` [glycyrrhetinic acid], the “aldosterone (DCA)-like activity, sodium retention and potassium excretion” value in data set [1] is “have an aldosterone (DCA)-like activity and promote sodium retention and potassium excretion”.
